Measurements: ChEMBL document CHEMBL1154844, “An antimycobacterial cyclodepsipeptide from the entomopathogenic fungus Ophiocordyceps communis BCC 16475” (J Nat Prod, 2010)
In brackets after ≈: the same amount, converted by molar mass. Activity calls are given as the source filed them. The calls are words filed in the database; no cut-off is given here.

Key:
Vero [1] = assay: Cytotoxicity against african green monkey Vero cells at 178 uM by Green fluorescent protein microplate assay; assay type: cell-based; conditions: chlorocebus sabaeus
NCI-H187 [2] = assay: Cytotoxicity against human NCI-H187 cells at 178 uM by resazurin microplate assay; assay type: functional, cell-based
MCF7 [3] = assay: Cytotoxicity against human MCF7 cells by resazurin microplate assay; assay type: functional, cell-based
KB [4] = assay: Cytotoxicity against human KB cells at 178 uM by resazurin microplate assay; assay type: functional, cell-based
MCF7 [5] = assay: Cytotoxicity against human MCF7 cells at 88 uM by resazurin microplate assay; assay type: functional, cell-based
NCI-H187 [6] = assay: Cytotoxicity against human NCI-H187 cells at 88 uM by resazurin microplate assay; assay type: functional, cell-based
KB [7] = assay: Cytotoxicity against human KB cells by resazurin microplate assay; assay type: functional, cell-based
Candida albicans = assay: Antifungal activity against Candida albicans; assay type: functional, organism-based
Pyricularia grisea = assay: Antifungal activity against Magnaporthe grisea; assay type: functional, organism-based
Plasmodium falciparum = assay: Antimalarial activity against Plasmodium falciparum K1; assay type: functional, organism-based
Vero [8] = assay: Cytotoxicity against african green monkey Vero cells at 88 uM by Green fluorescent protein microplate assay; assay type: cell-based; conditions: chlorocebus sabaeus
[9] = system: Mycobacterium tuberculosis; assay: Antibacterial activity against Mycobacterium tuberculosis H37Ra by Green fluorescent protein microplate assay; assay type: functional
[10] = system: Monilinia mali (Monilinia mali); assay: Antifungal activity against Monilinia mali
Bipolaris oryzae = assay: Antifungal activity against Cochliobolus miyabeanus; assay type: functional
Venturia inaequalis = assay: Antifungal activity against Venturia inaequalis; assay type: functional

| Structure (SMILES) | Activity (Vero [1]) | Activity (NCI-H187 [2]) | Activity (KB [4]) | Activity (NCI-H187 [6]) | IC50 (KB [7]) [µM] | MIC (Candida albicans) | MIC (Pyricularia grisea) | Activity (MCF7 [5]) | MIC (Plasmodium falciparum) | Activity (Vero [8]) | MIC [10] [mg/L] | MIC (Bipolaris oryzae) [mg/L] | MIC (Venturia inaequalis) [mg/L] | also measured |
| --- | --- | --- | --- | --- | --- | --- | --- | --- | --- | --- | --- | --- | --- | --- |
| CCC[C@H](O)C[C@@H]1Cc2cc(OC)cc(O)c2C(=O)O1 | Not Active | inactive | inactive |  |  |  |  |  |  |  |  |  |  | IC50 (MCF7 [3]): 62 µM; IC50 (MCF7 [5]): 62 µM |
| CCC[C@H](O)C[C@@H]1Cc2cc(OC)cc(OC)c2C(=O)O1 | Not Active | inactive | inactive | inactive | 45 | inactive | inactive | inactive | inactive | Not Active |  |  |  | Activity (MCF7 [3]): inactive; Activity [9]: inactive |
| CCCCCCCCCC[C@@H](C)[C@@H]1CC(=O)N[C@H]([C@@H](C)O)C(=O)N[C@@H](C)C(=O)N[C@H](C)C(=O)N[C@@H](CCC(N)=O)C(=O)N[C@H](Cc2ccc(O)cc2)C(=O)N[C@@H](C(C)C)C(=O)O1 [WA 493 A] |  |  |  |  |  |  |  |  |  |  | 1 (≈ 1.14 µM) | 1 (≈ 1.14 µM) | 1 (≈ 1.14 µM) |  |
| CCCCCCCCCC[C@@H](C)[C@@H]1CC(=O)N[C@H]([C@@H](C)O)C(=O)N[C@@H](C)C(=O)N[C@H](C)C(=O)N[C@@H](CCC(N)=O)C(=O)N[C@H](Cc2ccc(O)cc2)C(=O)N[C@@H]([C@@H](C)CC)C(=O)O1 |  |  |  |  |  |  |  |  |  |  | 1 (≈ 1.13 µM) | 1 (≈ 1.13 µM) | 1 (≈ 1.13 µM) |  |
| CCCCCCCCCC1CCCC(=O)N[C@H]([C@@H](C)O)C(=O)N[C@@H](C)C(=O)N[C@@H](C)C(=O)N[C@@H](CCC(N)=O)C(=O)N[C@@H](Cc2ccc(O)cc2)C(=O)N[C@@H](C(C)C)C(=O)O1 (stereo partly specified) [CORDYCOMMUNIN] |  |  |  | inactive | 45 | inactive | inactive | inactive | inactive | Not Active |  |  |  | MIC [9]: 15 µM (≈ 12.9 µg/mL) |
